The text below walks through data of US11560362B2, “Dibutylfluorene derivative and application thereof as photoinitiator” (HUI ZHOU HUAHONG NEW MATERIAL CO., LTD., priority 2017, dated 2023).

Data set [1] can be described thus: Stability analysis: mobility of initiator compound from cured print into analog solutions, by HPLC. Format: physicochemical. The following applies: 40° C. for 10 days, calculated for 1 kg of food per 600 cm^2 printing area.
Protocol: The cardboard is cut to a size of 10×10 cm, is completely immersed in two analog solutions, i. e., 100 ml distilled water and 3% acetic acid aqueous solution, sealing is performed well, and placement is performed at 40° C. for 10 days. The printed matter is taken out, and after standing, the contents of the initiator compounds in the analog solutions are directly analyzed by means of HPLC.
A short description of data set [2]: Solubility of solid photoinitiator in liquid polymerized monomer (HDDA or TPGDA). Conditions: dissolved at 50-60° C., stored at room temperature.

Regarding `CCCCC1(CCCC)c2ccccc2-c2ccc(C(=O)C(C)(C)N3CCOCC3)cc21` [2-methyl-1-(2-(9,9-dibutylfluorenyl))-2-(N-morpholinyl)-1-acetone], the Mobility in data set [1] (3% acetic acid) is 60 µg/kg; in data set [1] (Water), 50 µg/kg.

Take `CC(C)(C(=O)c1ccc(-c2ccccc2)cc1)N1CCOCC1` [2-methyl-1-(4-biphenyl)-2-morpholinyl-1-acetone]: the Mobility was 98 µg/kg in data set [1] (3% acetic acid) and 80 µg/kg in data set [1] (Water). Also, the Solubility in data set [2] (Polymerized monomer 1: HDDA) was 20 % (mass fraction); in data set [2] (Polymerized monomer 2: TPGDA), 15 % (mass fraction).
